The results in this text go back to article PMC4964386, “Synthesis, Characterization, and Cytotoxicity of the First Oxaliplatin Pt(IV) Derivative Having a TSPO Ligand in the Axial Position” (International Journal of Molecular Sciences, 2016).

In general, viability refers to a per cent measure of how many cells are alive, often set against a control. A low value points to more harm to the cells.

Like-named read-outs stand apart in the source and are kept apart here.

The target of one data set is T1, TSPO (Rattus norvegicus, UniProt P16257).
T1 construct: Membranes from C6 rat glioma cells were prepared as described by Piccinonna et al; endogenous in cells; host or cells: C6 rat glioma cell membranes
Description: TSPO receptor binding assay, displacement of [3H]-PK 11195. Here is the method: Membranes from C6 rat glioma cells were prepared as described by Piccinonna et al. with minor modifications. In brief, cells scraped in PBS and harvested, were then homogenized with a Brinkman Polytron (Kinematica AG, Münstertäler, Germany). After centrifugation at 37,000× g for 30 min at 4 °C the resulting pellet was resuspended in ice-cold 10 mM PBS and stored at −80 °C until use.
(In general: Loss of bound radioactivity is the signal in a displacement assay; it reports binding, not function.)

The subject of data set [1] is human LoVo colon adenocarcinoma. As to the kind of experiment: MTT cell proliferation assay, LoVo. Format: cell-based. Conditions: 72 h treatment; for IC50: MTT, read-out: IC50 (concentration inducing 50% cell survival inhibition). Here is the method: (§1) The cytotoxicity of the compounds, expressed as IC50 values after 72 h incubation (except in two cases where it is expressed as the % of cell viability at the maximum concentration tested of 100 μM) are reported in Table 3.
(§2) Human MCF7 breast carcinoma, human U87 glioblastoma, human LoVo colon adenocarcinoma cell lines and C6 rat glioma cells were used. As recommended for these cell lines, the base medium used (EuroClone, Pero (MI), Italy) was RPMI for MCF7 cells, DMEM for U87 and C6 cells, and F-12/HAM for LoVo cells, enriched with fetal bovine serum (10%), penicillin (100 U/mL)/streptomycin (100 μg/mL) (1%) and glutamine 200 mM (1%) (EuroClone, Pero (MI), Italy). Cells were incubated at 37 °C under an atmosphere containing 5% CO2.
(§3) Determination of cell growth inhibition was performed on MCF7, U87 and LoVo cell lines, using the 3-[4,5-dimethylthiazol-2-yl]-2,5-diphenyltetrazoliumbromide (MTT) assay. The determination of the % of cell viability after treatment with the test compounds, was performed as described by Denora et al.. Briefly, cells were dispensed on 96 microtiter plates at a density of 5000 cells/well and, after overnight incubation, were exposed for 72 h to solutions of the compounds with concentration in the range 0.01–100 µM. After addition of MTT (10 μL of 0.5% w/v in PBS) and incubation for an additional 3 h at 37 °C, the cells were lysed with 100 μL of DMSO/EtOH 1:1 (v/v) solution, dispensed in each well. A PerkinElmer 2030 multilabel reader Victor TM X3 (manufactured for WALLAC Oy, Turku, Finland by PerkinElmer Singapore was used for the absorbance determination at 570 nm.

Another data set deals with LoVo cells. As to the kind of experiment: Cell cycle analysis by flow cytometry (propidium iodide). The class given is cell-based, human. The conditions noted are these: for Perturbation of cell cycle progression: 24 h treatment at IC50 concentrations (compound 2 at 100 µM), FCM. Here is the method: Figure 9 Flow cytometric analysis of LoVo cells stained with propidium iodide after 24 h of treatment with test compounds.
Then, the experimental procedure described in our previous work was performed.
(In general: In flow cytometry, cells or beads pass a laser one at a time.)

Data set [2] relates to human MCF7 breast carcinoma. As to the kind of experiment: MTT cell proliferation assay, MCF7. Format: cell-based. The conditions noted are these: MCF7, 72 h treatment; for IC50: MTT, read-out: IC50 (concentration inducing 50% cell survival inhibition). Here is the method:
as §1, §2, §3
For orientation: Formazan colour is commonly taken as a measure of viable cells.

The subject of another data set is human U87 glioblastoma. As to the kind of experiment: MTT cell proliferation assay, U87. Format: cell-based. The conditions noted are these: U87, 72 h treatment, read-out: IC50 (concentration inducing 50% cell survival inhibition). Here is the method: as §1, §2, §3
A further data set concerns LoVo colon cancer cells. As to the kind of experiment: Platinum cellular uptake by ICP-MS. The class given is cell-based, human. The text has this:
As already reported, oxaliplatin is a chemotherapeutic drug mainly used for the treatment of colorectal cancer, therefore, we extended our investigation only to LoVo cells. First we measured the intracellular accumulation of platinum by ICP-MS. […] Most likely, organic cation transporters (OCT) may facilitate the uptake of oxaliplatin [47] at short time exposure and then, after saturation, the passive diffusion of the most lipophilic compounds becomes prominent.
A Varian 820-MS ICP mass spectrometer (Varian Italia, Cernusco sul Naviglio (MI), Italy) was used to perform the inductively coupled plasma mass spectrometry (ICP-MS) analyses for the determination of the platinum cellular uptake in LoVo colon cancer cells. Cells were seeded in 60 mm tissue culture dishes at a density of 500,000 cells/dish and incubated at 37 °C in a humidified atmosphere with 5% CO2. […] The platinum content was determined by ICP-MS.

The nature of data set [3]: Stability in physiological-like solution by 1H-NMR and HPLC. The class given is physicochemical. Here is the method:
The stability of 3 was investigated by ^1H-NMR spectroscopy in DMSO-d6/D2O (5:95, v/v) at pH 7.4 (2 mM phosphate buffer) and 37 °C. […] After 8 h of incubation we observed a decrease in intensity of the peaks of 3 and the concomitant increase of a new set of peaks, marked with ● in Figure 8b (H5, 8.09 ppm; H7, 7.44 ppm; H16/20 7.35 ppm), that was assigned to compound 2 by comparison with a spectrum of the TSPO ligand recorded in similar conditions.
An HPLC analysis of the sample was performed after 108 h incubation at 37 °C. […] No reduction of the Pt(IV) complex occurred under the conditions used in this experiment.
The sample was incubated at 37 °C in the dark and ^1H-NMR spectra recorded at different time intervals.
The NMR solution was further analyzed by HPLC analysis. Stationary phase: Waters Symmetry RP-C18 column, 5 μm, 4.6 × 250 mm, 100 Å. Mobile phase: phase A = water and phase B = Acetonitrile; isocratic elution 5% phase B for 5 min, linear gradient from 5% to 50% phase B in 10 min, isocratic elution 50% phase B for 7 min, linear gradient from 50% to 5% phase B in 2 min, isocratic elution 5% phase B for 6 min. Flow rate = 0.7 mL·min^−1. UV-visible detector set at 220 nm.

Where [4] appears, read: Homo sapiens, 100 µM (maximum concentration tested).
[5] abbreviates: after 4 h treatment at IC50 concentration.
[6] abbreviates: after 24 h treatment at IC50 concentration.

T1 sequence (P16257 whole entry): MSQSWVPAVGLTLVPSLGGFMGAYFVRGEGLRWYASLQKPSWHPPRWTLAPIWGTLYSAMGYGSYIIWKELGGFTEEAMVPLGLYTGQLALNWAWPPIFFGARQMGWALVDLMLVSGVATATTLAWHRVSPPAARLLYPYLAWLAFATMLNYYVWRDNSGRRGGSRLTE

Take `CCCN(CCC)C(=O)Cc1c(-c2ccc(OCC(=O)O)cc2)nc2c(Cl)cc(Cl)cn12` [compound 2, 2-(4-(6,8-dichloro-3-(2-(dipropylamino)-2-oxoethyl)imidazo[1,2-a]pyridin-2-yl)phenoxy)acetic acid]: the IC50 turned out to be 2.12 ± 0.1 nM on TSPO and 70200 ± 300 nM in the data set on human U87 glioblastoma (Homo sapiens). The viability at 100 µM in data set [1] (setting [4]) is 65%; in data set [2] (setting [4]) it was 53%. For the same compound, the “Perturbation of cell cycle progression” value in the data set with LoVo cells is “induced a sub-G0/G1 cell population”.
For the compound `O=C1[O][Pt]2([Cl])([O]CCO)([NH]C3CCCCC3[NH]2)[O]C1=O` (mixture of isomers) [compound 1, Cis,trans,cis-[Pt(ethanedioato)Cl(2-hydroxyethanolato)(1R,2R-DACH)]], the IC50 in data set [1] stood at 2500 ± 500 nM; in data set [2], 8200 ± 400 nM; in the data set with human U87 glioblastoma it was 9100 ± 400 nM. Also, in the data set on LoVo cells, the “Perturbation of cell cycle progression” value is recorded as “no notable changes compared to oxaliplatin”. Moreover, the figures for the “Uptake by LoVo Cells (ppb of Pt)” value in the data set on LoVo colon cancer cells (setting [5]) and with LoVo colon cancer cells (setting [6]) were 0.18 ± 0.01 ppb of Pt and 0.59 ± 0.03 ppb of Pt, respectively.
As to `CCCN(CCC)C(=O)Cc1c(-c2ccc(OCC(=O)OCC[O][Pt]3([Cl])[O]C(=O)C(=O)[O]3)cc2)nc2c(Cl)cc(Cl)cn12.N[C@@H]1CCCC[C@H]1N` [compound 3, cis,trans,cis-[Pt(ethanedioato)Cl{2-(2-(4-(6,8-dichloro-3-(2-(dipropylamino)-2-oxoethyl)imidazo[1,2-a]pyridin-2-yl)phenoxy)acetate)-ethanolato}(1R,2R-DACH)]], the IC50 on TSPO (displacement of [3H]-PK 11195 (0.7 nM), Table 2: rat cerebral cortex, method: C6 rat glioma cell membranes, 90 min, 25 °C, read-out: IC50 TSPO) was 18.6 ± 0.84 nM; in data set [1] (listed as cis,trans,cis-[Pt(ethanedioato)Cl{2-(2-(4-(6,8-dichloro-3-(2-(dipropylamino)-2-o))))), 2310 nM; in data set [1], 2300 ± 100 nM; in data set [2] it was 14100 ± 100 nM; with human U87 glioblastoma, 16100 ± 300 nM. Moreover, in the data set on LoVo cells (24 h treatment), the Induction of apoptosis result is on record as “did not induce apoptosis”. Besides, the “Perturbation of cell cycle progression” value in the data set with LoVo cells is “no notable changes compared to oxaliplatin”. In addition, the “Uptake by LoVo Cells (ppb of Pt)” value in the data set with LoVo colon cancer cells (setting [5]) was 0.33 ± 0.02 ppb of Pt; with LoVo colon cancer cells (setting [6]) it was 0.77 ± 0.02 ppb of Pt. In addition, the “Half-life of the complex (hydrolysis of ester bond)” value in data set [3] (DMSO-d6/D2O (5:95, v/v), pH 7.4 (2 mM phosphate buffer), 37 °C, 52 μM, from NMR) is “approximately 24 h”. Also, in data set [3] (DMSO-d6/D2O (5:95, v/v), pH 7.4 (2 mM phosphate buffer), 37 °C, 1H-NMR), the “Time after which signals disappeared completely” value came out at 108 h. Moreover, in data set [3] (pH 7.4, 37 °C, HPLC after 108 h incubation), the “Degradation behaviour in physiological-like conditions” value is reported as “slow hydrolysis of the ester bond”.
`O=C1[O][Pt-2]2([NH2+]C3CCCC[C@H]3[NH2+]2)[O]C1=O` (stereo in doubt) [Oxaliplatin, trans-1R,2R-diaminocyclohexane(oxalato)platinum(II)]: the IC50 in data set [1] came to 460 ± 10 nM; in the data set with human U87 glioblastoma, 3100 ± 200 nM. For the same compound, the “Perturbation of cell cycle progression” value with LoVo cells was “delayed the S-phase and started to accumulate cells in G2/M-phase and G0/G1 phase”. Besides, the “Uptake by LoVo Cells (ppb of Pt)” value in the data set on LoVo colon cancer cells (setting [5]) is 0.24 ± 0.04 ppb of Pt; with LoVo colon cancer cells (setting [6]), 0.38 ± 0.01 ppb of Pt.
